Laboratory results taken from ChEMBL document CHEMBL4616720 (J Med Chem, 2020).

What was measured:
HCT-116 = assay: Antitumor activity against human HCT116 cells xenografted in BALB/c nude mouse assessed as tumor growth inhibition at 25 mg/kg, ip administered every 3 days for 21 days and measured every second day for 21 days during compound dosing by digital caliper method relative to control; assay type: functional; details: HCT-116, ip, read-out: TGI
A549 = assay: Induction of apoptosis in human A549 cells assessed as late apoptotic cells at 40 uM measured after 48 hrs by Annexin V-FITC/propidium iodide staining based FACSClibur flow cytometry analysis (reference value: 3.63 %); assay type: functional
[1] = target: T1, Protein deacetylase HDAC6 (Homo sapiens, UniProt Q9UBN7); assay: Inhibition of HDAC6 (unknown origin) using Boc-Lys(Ac)-pNA as substrate preincubated for 20 mins followed by substrate addition and further incubated for 90 mins by fluorescence assay
T1 sequence (Q9UBN7 whole entry): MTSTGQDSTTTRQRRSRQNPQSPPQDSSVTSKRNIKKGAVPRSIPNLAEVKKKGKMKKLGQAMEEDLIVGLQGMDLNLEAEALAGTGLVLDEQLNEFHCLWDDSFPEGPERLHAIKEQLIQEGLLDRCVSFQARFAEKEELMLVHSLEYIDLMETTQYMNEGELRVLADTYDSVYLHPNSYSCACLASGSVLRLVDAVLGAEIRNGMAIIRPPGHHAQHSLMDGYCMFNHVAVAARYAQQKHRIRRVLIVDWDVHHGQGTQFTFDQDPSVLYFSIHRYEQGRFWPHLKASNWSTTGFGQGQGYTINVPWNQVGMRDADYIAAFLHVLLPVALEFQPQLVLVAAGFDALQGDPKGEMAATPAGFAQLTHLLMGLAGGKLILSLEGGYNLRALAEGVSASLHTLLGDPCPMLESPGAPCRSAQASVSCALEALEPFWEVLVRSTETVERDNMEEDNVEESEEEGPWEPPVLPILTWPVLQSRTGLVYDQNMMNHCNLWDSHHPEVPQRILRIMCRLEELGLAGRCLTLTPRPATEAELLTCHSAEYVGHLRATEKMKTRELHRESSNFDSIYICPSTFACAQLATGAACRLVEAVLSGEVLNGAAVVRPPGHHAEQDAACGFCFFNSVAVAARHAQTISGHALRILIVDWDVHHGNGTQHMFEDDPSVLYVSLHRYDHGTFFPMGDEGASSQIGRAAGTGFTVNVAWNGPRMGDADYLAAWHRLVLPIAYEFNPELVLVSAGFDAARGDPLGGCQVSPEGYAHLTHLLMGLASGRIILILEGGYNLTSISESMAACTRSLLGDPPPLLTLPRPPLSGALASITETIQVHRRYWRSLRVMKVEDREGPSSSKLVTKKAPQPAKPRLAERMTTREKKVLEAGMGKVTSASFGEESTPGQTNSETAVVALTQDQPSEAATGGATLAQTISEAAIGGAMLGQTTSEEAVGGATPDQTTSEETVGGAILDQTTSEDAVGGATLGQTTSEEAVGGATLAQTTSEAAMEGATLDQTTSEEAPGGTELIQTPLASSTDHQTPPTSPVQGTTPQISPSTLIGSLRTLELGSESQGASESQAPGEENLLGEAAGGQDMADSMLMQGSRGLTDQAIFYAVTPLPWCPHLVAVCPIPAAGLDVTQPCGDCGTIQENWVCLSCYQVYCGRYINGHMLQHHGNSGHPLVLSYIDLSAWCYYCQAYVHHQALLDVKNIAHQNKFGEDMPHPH

[2] = Acute toxicity in iv dosed KM mouse administered as single dose measured for 14 days; assay type: organism-based; details: in vivo

O=C(C[C@@H](CC1CCCC1)C(=O)N1CC2(CC2)C[C@H]1c1nc(-c2ccc(F)cc2C(F)(F)F)no1)NO
inhibition in vivo at 25 mg/kg (HCT-116): 64%
Activity (A549): 5.55%
IC50 [1]: > 10 µM
LD50 at 336 h [2]: 287 to 452 mg/kg
